Measurements taken from patent publication US10583094B2.

Tests used:
SUR1 = SUR1 knockdown by antisense ODN infusion at gelfoam implantation site; R1 astrocyte response to Na azide; type: cell-based, rat; conditions: for Depolarization of R1 astrocytes on Na azide: Na azide 1 mM
Excerpt: To further test involvement of SUR1, SUR1 expression was “knocked down” in situ by infusing oligodeoxynucleotide (ODN) for 14 days using a mini-osmotic pump, with the delivery catheter placed in the gelfoam implantation site in the brain, in the otherwise standard model we use for R1 astrocyte isolation ([…] et al., 1980, […] et al., 2002, […] et al., 2000, […] et al., 1999). Knockdown of SUR1 expression (SUR1KD) was achieved using antisense (AS; [NT] ID NO: 9)) (Yokoshiki et al., 1999) oligodeoxynucleotide (ODN), with scrambled ([…] ID NO: 10)) ODN being used as control. […] In R1 astrocytes from SUR1KD, however, Na azide had little effect on resting membrane potential (FIG. 24D).

[1] = system: freshly isolated R1 astrocytes; assay: Na azide-induced blebbing and cell death of freshly isolated R1 astrocytes
MCA stroke (MCE model) [2] = assay: MCA stroke (MCE model): tissue water content by wet/dry weight; type: in vivo, Wistar rats; conditions: 8 hr after stroke
Description: For large MCA strokes with malignant cerebral edema (MCE), the inventors first embolized microparticles (Nakabayashi et al., 1997) [polyvinyl alcohol (PVA) particles; […] […] TTC(−) portions of the involved hemisphere. […] Of these, 15 rats were used for validation of drug action (mortality, tissue water and glucose) and 5 rats were used for determination of drug distribution. […] For stroke size, stained sections were photographed and images were analyzed (Scion Image) to determine the percent of the involved hemisphere occupied by TTC(−) tissue; no correction for edema was performed. For some determinations of water or SUR1 protein content, individual coronal sections were divided under magnification into 3 parts: (i) the non-involved, control hemisphere; (ii) the TTC(+) portion of the involved hemisphere; (iii) the TTC(−) portion of the involved hemisphere. For each animal, pooled tissues from the 3 parts were then processed for tissue water measurements or for Western blots. Tissue water was quantified by the wet/dry weight method (Hua et al., 2003). Tissue samples were blotted to remove small quantities of adsorbed fluid. Samples were weighed with a precision scale to obtain the wet weight (WW), dried to constant weight at 80° C. and low vacuum, and then reweighed to obtain the dry weight (WD). The percent H2O of each tissue sample was then calculated as (WW-WD)×100/WW.

thromboembolic stroke = assay: Thromboembolic stroke with rtPA reperfusion at 6 hr: hemorrhagic conversion; type: in vivo, spontaneously hypertensive rats; conditions: rtPA 10 mg/kg i.v. at 6 hr, 24 hr after stroke
Description: A rodent model of thromboembolic stroke was used (Aoki et al., 2002; Kijkhuizen et al., 2001; Kano et al., 2000; Sumii et al., 2002; Tejima et al., 2001). […] Sumii et al., 2002). Rectal temperature was maintained at 37° C. with a thermostat-controlled heating pad. The right femoral artery was cannulated, and physiological parameters, including temperature, mean blood pressure, pH, pO2, and pCO2, glucose were monitored. Temporary focal ischemia was obtained with an embolic model that used allogeneic clots to occlude the MCA. Allogeneic, thrombin-induced, fibrin-rich blood clots were prepared using methods adapted from […] et al. (Asahi et al., 2000; […] et al., 2003; Sumii et al., 2002). Seven clots, 1.5 mm long, were used for embolizing. Using a ventral cervical incision, the internal and external carotid arteries were exposed. The external carotid artery and pterygopalatine arteries were ligated. Removable surgical clips were applied to the common and internal carotid arteries. The modified PE-50 catheter containing the clots was inserted retrograde into the external carotid artery and advanced up to the internal carotid artery. The temporary clips were removed, and the clots were injected. Incisions were closed. […] Physiological parameters, including temperature, mean blood pressure (tail cuff plethysmography), blood gases and glucose were monitored. […]

rodent model of stroke = assay: Rodent model of stroke, mortality and hemisphere water (Example 9); type: in vivo, rat; conditions: n=5 in each group
MMP-9 & MMP-2 = assay: Zymography of gelatinase activity of recombinant enzyme and stroke tissue; type: biochemical; conditions: glibenclamide 10 μM; MMP inhibitor II 300 nM
Description: Activation of MMP-9 & MMP-2 in stroke tissue was compared to controls.
Next, the supernatants underwent a gelatinase purification process with gelatin-Sepharose 4B (Pharmacia), and Zymography was performed on the purified supernatants in sodium dodecyl sulfate gels containing gelatin (Rosenberg, 1994). Dried gels were scanned with a transparency scanner, and images were analyzed by densitometry. The relative lysis of an individual sample was expressed as the integrated density value of its band and divided by the protein content of the sample.

[3] = rat, in vivo
MCA stroke (MCE model) [4] = system: MCA stroke (MCE model); design: species or system Wistar rats; conditions: rat, in vivo, sc

Compound: 5′-GGCCGAGTGGTTCTCGGT-3′ (chemistry not given here) [AS-ODN, antisense oligodeoxynucleotide used to knock down SUR1 expression]
- Depolarization of R1 astrocytes on Na azide (SUR1): little or no depolarization
- Depolarization of R1 astrocytes on Na azide (SUR1; listed as SUR1KD): 8.7±1.7 mV
- SUR1 expression in gliotic capsule (immunoblot) (SUR1; ODN infused for 14 days, compared with scrambled ODN): significant reduction in SUR1 expression
- Membrane blebbing after exposure to Na azide (SUR1; R1 astrocytes): not observed

Compound: CC1=NS(=O)(=O)c2cc(Cl)ccc2N1 [diazoxide]
- Cell morphology (blebbing) on exposure to channel opener ([1]; phase contrast, observed over 30 min): developed progressive blebbing consistent with cytotoxic edema

Compound: COc1ccc(Cl)cc1C(=O)NCCc1ccc(S(=O)(=O)NC(=O)NC2CCCCC2)cc1 [glibenclamide]
- Rise of water in TTC(+) tissue over uninvolved hemisphere (MCA stroke (MCE model) [2]): 2.5%
- Rise of water in involved hemisphere over control hemisphere (MCA stroke (MCE model) [2]): 2.0%
- Animals with hemorrhagic conversion (thromboembolic stroke; co-treated with glibenclamide 1.5 μg/kg i.v. plus pump 300 μM at ½ μl/hr): 1/5
- Animals showing no evidence of hemorrhage (thromboembolic stroke; co-treated with glibenclamide): 4/5
- Excess water in stroke hemisphere compared with saline-treated rats (rodent model of stroke): only half as much excess water
- Gelatinase activity in presence of compound (MMP-9 & MMP-2): the same as that assayed without
- Necrotic death (propidium iodide) induced by Na azide ([1]; Na azide 1 mM, glibenclamide 1 μM): largely prevented
- Serum glucose at 8 hr [3]: 93 ± 3 mg/dL

Compound: BODIPY-FL-glyburide [BODIPY-glibenclamide]
- Water in TTC(+) tissue of involved hemisphere (MCA stroke (MCE model) [2]): 82.7±1.4%
- Mortality during 7 days after MCA stroke (MCA stroke (MCE model) [4]): 40%
